We go through one compound from US7645882B2, “Inhibitor of protein modification products formation” (priority 2003, dated 2010).

Test [1] has as its system ischemia-reperfusion renal failure model rat. Nature of the test: Renal protective effect on ischemia-reperfusion renal failure model rat. Type of test: in vivo. Conditions: 50 mg/kg twice daily by sonde, 2 days. On the procedure: This condition model is typical acute renal failure model. To prepare the model, operated on wistar rats (male, body weight 150 g, 6 weeks aged) to remove right kidney, and on the following day, renal artery of remaining left kidney was apply a ligature with clip under general anesthesia. […] After preparing the ischemia-reperfusion model, test compound (TM-2002, 50 mg/kg body weight, twice a daily) was suspended in 0.5% carboxymethylcellulose. The suspension was coercively administered 2 days continuously using sonde, on third day kidney was obtained, and analysed pathologically (renal tubular stromal disorder score). In particular, the kidney was stained by PAS according to conventional method and the renal tubular stromal disorder was estimated for the presence or absence of renal tubular necrosis, renal tubular hypertrophy, renal tubular atrophia, renal tubular basal lamina thickening and cast in the sustained image of kidney. As well as biochemical analysis of blood was carried out (contract clinical analysis organization: SRL).

Test [2] concerns middle cerebral artery ischemia-reperfusion model. In words: Cerebroprotective action in middle cerebral artery ischemia-reperfusion model. Type of test: in vivo, rat. The protocol: CD(SD)IGS male rats (Japan Charles river Kabushiki kaisha, Hino farm, room No. 22, specific product) (8 rats per one group) having body weight 270 to 350 g were anesthetized by 2% isoflurane (mixed bas comprising of 70% N2O (laughter gas) and 30% O2) to immobilize, and then the rats were put on warming plate to keep the rectal and brain temperature 37 to 38° C. After that, to observe the stability in the examination, cannula which was made by polyethylene (PE-50, Becton Dickinson) was inserted and left in caudal artery of said animal, and this made blood drawing and blood pressure determining to monitor the biochemical parameter such as blood sugar level, hematocrit, CO2 concentration, oxygen partial pressure, pH, blood pressure and etc. In addition, cerebral blood flow in cortex was determined by laser doppler fluorometry (Neuroscience.inc: OMEGA FLOW (FLO-C1)), putting the detection site directly on cranium on the point left 4 mm from bregma. Left neck of such animal was incised, and from internal and external carotid fork of common carotid artery to upstream of internal carotid, nylon surgical thread (length 16 mm, diameter 0.2 to 0.3 mm, with silicon coating on its tip 3 mm) was passed and left, middle cerebral artery was obstructed for 2 hours. After that, the thread was removed to release the middle cerebral artery, and blood was reperfused for 21 hours. To each animals, 3.0 mg/kg of edaravone (control) and 5.58 mg/kg of TM-2002 were respectively administered twice by cannula which is left in caudal artery 5 minutes and 5 hours after middle cerebral artery occlusion. After said operation, the brain was removed from said animal, and after preparing 7 brain slices with 2 mm thickness, to TTC stain (0.8 g of 2,3,5-triphenyltetrazolium chloride (Sigma) dissolved in 40 ml of saline) were soaked at 37° C. for 15 minutes to stain, the area of infarction and fixed by 10% neutral formalin liquid to prepare specimen. Such specimens were created the image by CCD camera respectively, and analysed according to method of Swanson et al. (J Cereb Blood Flow Metab 10:290-293; 1994). […] Furthermore, function recovering was estimated before and after the operation by rotor rod test that estimates how much they can walk on rotating rotor.

The subject of the next test is GRP78. Nature of the test: ER stress inducing molecule expression in RIN-5F cells, western blot, GRP78. Conditions: TM-2002 200 μM, 50 μM and tunicamycin co-added. The test is classed as cell-based, rat. On the procedure:
Rat pancreatic β cell line (RIN-5F) was seeded in 6 well culture plate to 1.0×10^5 cells/well, and after 24 hours, TM-2002 in DMSO (200 mM, 50 mM) were added to be final concentration 200 μM, 50 μM. After another 1 hour, 0.2 μl of tunicamycin (Sigma) in methanol(1 mg/ml) was added. After culturing 8 hours, the cells were washed 2 ml of PBS(+) twice, and the cells were dissolved in 100 μl of lysate (50 mM Tris-HCl (pH 7.5), 150 mM NaCl, 100 mM NaF, 100 mM sodium phosphate (pH 7.4), 2 mM Na3VO4, 0.1% protease inhibitor cocktail (Sigma), 1% Triton X-100). To remove the insoluble fraction of this lysate, centrifuged at 12,000×g for 10 minutes and obtained the supernatant to give cell extract. The extract was quantified its protein concentration using DC protein assay kit (Bio Rad), and each samples (1 μg) was electrophoresed by SDS-PAGE and transferred to PVDF membrane. The membrane was blocked with 5% skimmed milk/0.1% Tween20-TBS for 1 hour at room temperature, and reacted with anti-ORP150 antibody in 5% skimmed milk/0.1% Tween20-TBS (2000 folds: specific antibody), anti-GRP78 antibody (Santa Cruz) in 5% skimmed milk/0.1% Tween20-TBS (100 folds) and anti-actin antibody (Sigma) in 5% skimmed milk/0.1% Tween20-TBS (200 folds) for 2 hours. […] The detected signal was analyzed by Lane analyzer (ATTO) and calculated the signal strength. […]
For orientation: A western blot detects proteins with antibodies after separation by electrophoresis.

In the case of `Cc1ncc2c(c1O)C(c1c(C)nn(-c3ccccc3)c1O)OC2` (stereo not drawn) [compound 68, 1-(5-hydroxy-3-methyl-1-phenyl-1H-pyrazol-4-yl)-6-methyl-1,3-dihydro-furo[3,4-c]pyridin-7-ol], in test [1] (kidney on third day), the BUN value entry was “improved” and the urinary protein result is “improved”. For the same compound, the “number of glomerular cells” value in test [1] (p<0.0001) is listed as “significantly suppressed”. In test [2] (2 hours occlusion, 21 hours reperfusion, edaravone 3.0 mg/kg, TM-2002 5.58 mg/kg, twice (5 minutes and 5 hours after occlusion), vs excipient), the cerebral infarction nest result is listed as “significantly reduced”. Also, the “improvement for nervous condition and recovering the function” value in test [2] (compared to excipient single administration) is recorded as “remarkably shown”. The “hyperexpression of GRP78” value in the test on GRP78 is given as “suppressed”.
